Data published in ChEMBL document CHEMBL1137095, “Synthesis and radioiodination of selective ligands for the dopamine D3 receptor subtype” (Bioorg Med Chem Lett, 2004).

What was measured:
D(2) dopamine receptor [1] = target: T1, D(2) dopamine receptor (Homo sapiens, UniProt P14416); assay: biochemical
Description: Binding affinity towards human D2 short receptor using [3H]spiperone expressed in CHO cells

[2] = Binding affinity towards 5-HT2 receptor from porcine cortical membranes using [3H]ketanserin
D(1A) dopamine receptor = D(1A) dopamine receptor (Sus scrofa, UniProt P50130); assay: Binding affinity towards D1 receptor from porcine striatal membranes using [3H]-SCH- 23390
Sequence of D(1A) dopamine receptor (P50130 whole entry): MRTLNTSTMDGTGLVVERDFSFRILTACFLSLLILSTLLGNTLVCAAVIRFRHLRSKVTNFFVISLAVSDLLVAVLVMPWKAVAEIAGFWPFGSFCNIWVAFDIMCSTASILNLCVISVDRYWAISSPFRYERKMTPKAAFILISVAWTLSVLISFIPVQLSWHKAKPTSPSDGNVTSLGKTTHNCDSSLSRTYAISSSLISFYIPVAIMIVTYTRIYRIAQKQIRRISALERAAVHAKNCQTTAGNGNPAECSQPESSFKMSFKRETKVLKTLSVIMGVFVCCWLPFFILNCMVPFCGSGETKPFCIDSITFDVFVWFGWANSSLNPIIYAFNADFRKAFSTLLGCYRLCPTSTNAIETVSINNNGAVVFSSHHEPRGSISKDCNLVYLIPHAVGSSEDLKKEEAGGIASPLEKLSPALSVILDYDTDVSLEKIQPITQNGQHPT

D(2) dopamine receptor [3] = target: T1, D(2) dopamine receptor; assay: biochemical; remark: listed apart in the source
Description: Binding affinity towards human D2 long receptor using [3H]spiperone expressed in CHO cells

D(3) dopamine receptor = D(3) dopamine receptor (Homo sapiens, UniProt P35462); assay: biochemical
Sequence of D(3) dopamine receptor (P35462 whole entry): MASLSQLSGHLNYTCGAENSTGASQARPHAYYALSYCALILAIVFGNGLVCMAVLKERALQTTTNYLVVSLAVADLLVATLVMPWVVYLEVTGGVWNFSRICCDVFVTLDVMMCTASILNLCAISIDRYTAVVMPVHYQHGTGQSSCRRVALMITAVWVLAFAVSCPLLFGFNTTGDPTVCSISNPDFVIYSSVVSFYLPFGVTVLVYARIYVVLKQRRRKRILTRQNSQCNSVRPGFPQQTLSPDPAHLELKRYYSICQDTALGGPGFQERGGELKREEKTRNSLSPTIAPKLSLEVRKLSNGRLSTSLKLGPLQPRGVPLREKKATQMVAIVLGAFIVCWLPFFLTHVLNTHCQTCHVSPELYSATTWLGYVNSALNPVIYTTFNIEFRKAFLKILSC
Description: Binding affinity towards human D3 receptor using [3H]spiperone expressed in CHO cells

D(4) dopamine receptor = target: T2, D(4) dopamine receptor (Homo sapiens, UniProt P21917); assay: biochemical
T2 sequence (P21917 whole entry): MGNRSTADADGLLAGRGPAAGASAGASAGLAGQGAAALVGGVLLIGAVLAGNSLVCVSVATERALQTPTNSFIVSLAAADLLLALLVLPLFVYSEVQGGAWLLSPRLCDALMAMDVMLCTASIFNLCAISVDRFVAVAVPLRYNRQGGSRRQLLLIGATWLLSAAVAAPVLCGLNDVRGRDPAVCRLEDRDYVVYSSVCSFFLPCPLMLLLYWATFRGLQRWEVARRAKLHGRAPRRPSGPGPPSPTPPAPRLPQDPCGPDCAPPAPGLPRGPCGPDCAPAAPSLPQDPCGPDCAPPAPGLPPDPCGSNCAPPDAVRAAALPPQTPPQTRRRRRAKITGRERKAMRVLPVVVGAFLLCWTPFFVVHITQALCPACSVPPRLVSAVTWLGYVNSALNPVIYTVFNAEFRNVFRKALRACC
Description: Binding affinity towards human D4.4 receptor using [3H]spiperone expressed in CHO cells

T1 sequence (P14416 whole entry): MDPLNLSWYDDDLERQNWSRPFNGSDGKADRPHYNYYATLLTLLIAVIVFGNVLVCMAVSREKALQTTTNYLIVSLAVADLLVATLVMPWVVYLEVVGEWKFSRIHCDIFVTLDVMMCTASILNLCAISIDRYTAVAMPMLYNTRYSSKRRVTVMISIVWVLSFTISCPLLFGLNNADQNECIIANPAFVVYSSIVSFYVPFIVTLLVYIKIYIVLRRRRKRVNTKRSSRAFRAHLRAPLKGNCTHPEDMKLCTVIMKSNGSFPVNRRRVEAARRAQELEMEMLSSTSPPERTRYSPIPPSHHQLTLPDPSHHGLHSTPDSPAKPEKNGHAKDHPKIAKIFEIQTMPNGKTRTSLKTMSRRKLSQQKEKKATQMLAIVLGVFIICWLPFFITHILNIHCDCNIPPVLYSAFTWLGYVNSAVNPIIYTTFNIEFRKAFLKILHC

SMILES | Ki (D(2) dopamine receptor [1]) | Ki [2] | Ki (D(1A) dopamine receptor) | Ki (D(2) dopamine receptor [3]) | Ki (D(3) dopamine receptor) | Ki (D(4) dopamine receptor)
O=C(NCCCCN1CCN(c2cccc(Cl)c2Cl)CC1)c1ccc(I)s1 | 32 nM | 210 nM | 820 nM | 89 nM | 1.4 nM | 130 nM
O=C(NCCCCN1CCN(c2cccc(Cl)c2Cl)CC1)c1cc2ccccc2s1 | – | 3000 nM | – | – | – | –
O=C(NCCCCN1CCN(c2cccc(Cl)c2Cl)CC1)c1cc2cc(I)ccc2o1 | 430 nM | 790 nM | 3300 nM | 3200 nM | – | 2200 nM
COc1ccccc1N1CCN(CCCCNC(=O)c2ccc(I)s2)CC1 | 35 nM | 690 nM | 600 nM | 75 nM | 2.4 nM | 31 nM

Continued by falling Ki [2], values first:

Ki (D(2) dopamine receptor [1]) | Ki [2] | Ki (D(1A) dopamine receptor) | Ki (D(2) dopamine receptor [3]) | Ki (D(3) dopamine receptor) | Ki (D(4) dopamine receptor) | SMILES
140 nM | 290 nM | 1400 nM | 450 nM | 4.5 nM | 550 nM | O=C(NCCCCN1CCN(c2cccc(Cl)c2Cl)CC1)c1cc2cc(I)ccc2s1
1 nM | 250 nM | 520 nM | 48 nM | 0.86 nM | 42 nM | COc1ccccc1N1CCN(CCCCNC(=O)c2cc3cc(I)ccc3s2)CC1
27 nM | 230 nM | 420 nM | – | 1.4 nM | 46 nM | COc1ccccc1N1CCN(CCCCNC(=O)c2cc3cc(I)ccc3o2)CC1
